#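 Where inhibition never reached the appropriate level, the endpoint shown equals the highest concentration tested. Otherwise, values were interpolated linearly from a five-concentration, 48-hour dose response in 96-well plates. The concentration for 50% growth inhibition is given as GI50. At the TGI there is no net growth.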
# Key:
# Test in all cases: NCI tumour cell line growth inhibition, 48 h
# [1] = tested on: HCC-2998 colon
# [2] = tested on: UACC-62 melanoma
# [3] = tested on: RPMI-8226 leukemia
# [4] = tested on: MOLT-4 leukemia
# [5] = tested on: U251 CNS
# [6] = tested on: HCT-116 colon
# [7] = tested on: SNB-75 CNS
# [8] = tested on: K-562 leukemia
# [9] = tested on: 786-0 renal
# [10] = tested on: OVCAR-5 ovarian
Compound,GI50 [1] [µM],TGI [1] [µM],GI50 [2] [µM],TGI [2] [µM],GI50 [3] [µM],TGI [3] [µM],GI50 [4] [µM],TGI [4] [µM],GI50 [5] [µM],TGI [5] [µM],GI50 [6] [µM],TGI [6] [µM],GI50 [7] [µM],TGI [7] [µM],GI50 [8] [µM],TGI [8] [µM],GI50 [9] [µM],TGI [9] [µM],GI50 [10] [µM],TGI [10] [µM]
O=C(Nc1cccc2[nH]c(C(F)(F)F)nc12)c1cc(Cl)ccc1Cl,3.87,15.8,3.47,16.1,2.3,6.3,3,8.65,3.47,14.1,3.06,12.9,2.06,8.06,3.71,> 100,3.01,12.1,4.03,> 100
COc1cc(OC)c2sc(-c3ccc(-n4cncc4-c4ccc(OC)c(OC)c4)cc3)nc2c1,> 100,> 100,8.14,> 100,> 100,> 100,–,–,9.19,> 100,5.48,> 100,7.21,46,5.88,> 100,> 100,> 100,> 100,> 100
C=CC(C)(C)n1cc(C2=C(O)C(=O)C(c3cn(C(C)(C)C=C)c4ccccc34)=C(O)C2=O)c2ccccc21,–,9.8,–,4.33,–,40.2,–,> 45.8,–,10.4,–,> 33.9,–,7.77,–,> 100,–,> 34.8,–,4.45
COc1ccc2c(c1)C(=O)/C(=C/c1cccc(OCC(=O)Nc3nc(C)c(C)s3)c1)O2,1.53,3.54,1.97,7.98,0.104,0.587,0.155,0.369,–,–,0.17,0.564,0.0115,0.037,0.24,–,0.0238,0.0545,0.205,1.14
O=C(NN1C(=O)CSC1c1cccc(Cl)c1)C(O)c1ccccc1 (stereo unspecified),–,–,23.1,> 100,23.1,> 100,77.8,> 100,59.2,> 100,83.8,> 100,65,> 100,27.4,> 100,> 100,> 100,> 100,> 100
C[N+](C)(C)CC1CCCCC1=O (stereo unspecified),–,–,–,34,–,44.7,–,35.3,–,> 100,–,31.5,–,81.2,–,64.3,–,> 100,–,–
COc1ccc(-c2cnnn2-c2nonc2-n2cccc2)cc1OC,5.53,37.7,5.42,> 100,4.85,> 100,3.63,> 100,–,–,4.19,> 100,4.19,39.2,1.37,> 100,7.15,> 100,17.8,> 100
Cc1cc(NCc2cc(Nc3ccnc4cc(Cl)ccc34)ccc2F)nc(N2CCOCC2)n1,2.27,5.44,–,–,1.81,5.58,2.95,> 100,1.95,4.05,–,–,1.32,2.79,1.73,6.18,1.66,3.12,2.45,6.97
O=C1c2cccnc2-c2nc(-c3cccnc3)cc3c2c1nc1ccccc13,–,–,13.3,28.3,2.59,> 100,3.21,> 41.3,3.61,> 100,2.8,> 32.7,2.34,6.91,1.67,> 100,2.74,8.85,12.2,30.1
COC(=O)C(=O)C(CC(=O)Nc1ccc(C)cc1)C(=O)OC (stereo unspecified),–,> 100,–,> 100,–,> 100,–,> 100,–,> 100,–,> 100,–,–,–,> 100,–,> 100,–,> 100
C=C1C(=O)O[C@H]2[C@H]1CC/C(Cn1cc(-c3ccc(N)cc3)nn1)=C\CC[C@@]1(C)O[C@@H]21,3.49,12,–,–,2.75,10.4,2.87,28.6,4.16,16.5,1.55,4.22,4.98,22.4,2.99,> 100,1.98,4.62,6.43,22.9
COc1ccc(O)c(C(=O)CCC(=O)O)c1,–,> 100,–,> 100,–,> 100,–,> 100,–,> 100,–,–,–,> 100,–,> 100,–,> 100,–,> 100
O=[N+]([O-])c1cc([As](Br)c2ccc(O)c([N+](=O)[O-])c2)ccc1O,–,2.72,–,3,–,1.28,–,–,–,4.47,–,5.54,–,3.62,–,> 23.2,–,4.36,–,4.2
COc1ccc(Nc2nc(Nc3cc(C)[nH]n3)c3cc(OC)c(OC)cc3n2)cc1,1.32,2.9,1.71,3.39,0.278,0.782,0.389,2.58,–,–,–,–,1.66,3.15,–,–,1.49,3.02,2,3.74
NC(=O)c1cccnc1,–,–,> 100,> 100,> 100,> 100,> 100,> 100,> 100,> 100,> 100,> 100,> 100,> 100,> 100,> 100,> 100,> 100,> 100,> 100
CC(C)(C)NCC(O)COc1c(Br)c(Br)c(Br)c2c1OC(C)(C)C2 (stereo unspecified),–,–,1.88,3.32,1.45,3.09,1.59,3.16,1.92,3.41,–,–,–,–,1.54,2.94,1.58,3.21,–,–
C=C1C(=O)O[C@H]2[C@H]1CC/C(COC(=O)NCc1ccc(Cn3c(=O)sn(CCCCC)c3=O)cc1)=C\CC[C@@]1(C)O[C@@H]21,3.55,11.1,1.59,3.08,–,–,0.59,4.06,2.2,4.93,1.73,3.7,1.59,4.07,–,–,1.98,4.23,2.01,4.91

Compound,GI50 [1] [µM],TGI [1] [µM],GI50 [2] [µM],TGI [2] [µM],GI50 [3] [µM],TGI [3] [µM],GI50 [4] [µM],TGI [4] [µM],GI50 [5] [µM],TGI [5] [µM],GI50 [6] [µM],TGI [6] [µM],GI50 [7] [µM],TGI [7] [µM],GI50 [8] [µM],TGI [8] [µM],GI50 [9] [µM],TGI [9] [µM],GI50 [10] [µM],TGI [10] [µM]
CCOC(=O)c1sc(-c2ccc(OS(=O)(=O)C[C@]34CCC(CC3=O)C4(C)C)c(C=O)c2)nc1C,–,–,0.745,1.76,0.822,3.19,0.797,2.22,0.694,1.43,–,–,0.781,2.8,0.753,> 13.5,1.39,4.09,0.97,2.68
COC(=O)C(C(=O)C(=O)Nc1ccc(C)cc1C)c1csc(-n2nc(-c3ccccc3)cc2-c2ccccc2)n1 (stereo unspecified),–,> 100,–,> 100,–,–,–,> 100,–,> 100,–,> 100,–,52.6,–,> 100,–,> 100,–,> 100
C=C(CN1CCc2c([nH]c3ccccc23)C1)c1ccc(C(=O)Nc2ccccc2N)cc1,0.731,1.91,1.59,7.43,0.356,3.57,0.116,0.405,1.42,7.73,2.19,32.9,–,–,1.01,17,4.96,23.6,7.15,31.6
CC(=O)/C=C/c1ccc(Nc2c3ccccc3nc3occ(Cl)c23)cc1,2.93,14.6,1.66,7.03,–,–,2.69,13.3,2.33,6.83,4.83,17.6,18.3,59.4,2.45,13.3,3.17,17.2,13.9,30.7
CCCc1nc(Cl)nc(Cl)c1Cl,–,4.57,–,2.07,–,–,–,0.551,–,2.05,–,1.3,–,6,–,0.118,–,1.43,–,1.74
CCOc1cccc2c1N[S@@](=O)S2,–,–,–,> 100,–,> 100,–,> 100,–,> 100,–,> 100,–,> 100,–,> 100,–,> 100,–,–
CCCC1(CN2c3ccccc3Sc3ccc(Cl)cc32)CCN(CC)C1 (stereo unspecified),1.68,3.27,1.92,3.6,2.59,5.73,3.27,> 100,1.66,3.16,1.81,3.29,1.77,3.74,–,–,1.89,3.52,1.71,3.48
COc1cc2c(c3c1c(=O)c1ccccc1n3C)C=CC(C)(C)O2,–,–,–,> 100,–,> 100,–,> 100,–,> 100,–,> 100,–,> 100,–,> 100,–,> 100,–,> 100
C#CCN(N=O)C(=O)ON1C(=O)CCC1=O,–,–,–,> 100,–,> 100,–,> 100,–,> 100,–,> 100,–,> 100,–,> 100,–,> 100,–,> 100
O=C1CCC2(c3ccccc3)Nc3ccccc3N12 (stereo unspecified),–,> 100,–,> 100,–,> 100,–,> 100,–,> 100,–,–,–,> 100,–,> 100,–,> 100,–,> 100
CSc1ncnc2c1ncn2CC(=O)C1CCC2C3CCC4=CC(=O)CCC4(C)C3CCC12C (stereo unspecified),–,–,–,14,–,5.21,–,4.93,–,42.4,–,59.2,–,27.9,–,> 71.8,–,> 100,–,> 100
CO[C@H]1/C=C/O[C@@]2(C)Oc3c(C)c(O)c4c(O)c(c(/C=N/N5CCN(C)CC5)c(O)c4c3C2=O)NC(=O)/C(C)=C\C=C\[C@H](C)[C@H](O)[C@@H](C)[C@@H](O)[C@@H](C)[C@H](OC(C)=O)[C@@H]1C,–,> 100,–,> 100,–,> 100,–,> 100,–,–,–,> 100,–,–,–,> 100,–,> 100,–,> 100
N=c1c2ccccc2sc2nc3ccccc3n12,–,> 100,–,> 100,–,–,–,> 100,–,> 100,–,–,–,–,–,> 100,–,> 100,–,> 100
C=C1C(=O)OC2C1CCC(C)C1(O)C=CC(=O)C21C (stereo unspecified),–,> 10,–,> 10,–,> 10,–,> 10,–,> 10,–,> 10,–,> 10,–,> 10,–,> 10,–,–
COc1ccc(C(=O)c2sc3nc(-c4ccccc4OC)ccc3c2N)cc1OC,9.71,> 100,4.89,> 100,2.7,> 100,–,–,14.2,> 100,5.55,> 100,4.34,23.4,5.1,> 100,11.7,> 100,> 100,> 100
CC(/C=C/C(O)=C1/C(=O)CNC1=O)=C\[C@@H](C)[C@H]1O[C@@]2(C)O[C@H](C(=O)[C@@H]3O[C@@]32C)[C@@H]1C,–,–,–,33.3,–,35.9,–,72.2,–,54.9,–,39,–,63.1,–,> 100,–,36.5,–,57.5

# Reference: PubChem BioAssay (NCI)
